Columns and labels:
[1] = biological target: T1, FAAH (Mus musculus, UniProt O08914); experiment: In vivo FAAH inhibition, liver, after oral administration to mice
T1 sequence (O08914 1-579): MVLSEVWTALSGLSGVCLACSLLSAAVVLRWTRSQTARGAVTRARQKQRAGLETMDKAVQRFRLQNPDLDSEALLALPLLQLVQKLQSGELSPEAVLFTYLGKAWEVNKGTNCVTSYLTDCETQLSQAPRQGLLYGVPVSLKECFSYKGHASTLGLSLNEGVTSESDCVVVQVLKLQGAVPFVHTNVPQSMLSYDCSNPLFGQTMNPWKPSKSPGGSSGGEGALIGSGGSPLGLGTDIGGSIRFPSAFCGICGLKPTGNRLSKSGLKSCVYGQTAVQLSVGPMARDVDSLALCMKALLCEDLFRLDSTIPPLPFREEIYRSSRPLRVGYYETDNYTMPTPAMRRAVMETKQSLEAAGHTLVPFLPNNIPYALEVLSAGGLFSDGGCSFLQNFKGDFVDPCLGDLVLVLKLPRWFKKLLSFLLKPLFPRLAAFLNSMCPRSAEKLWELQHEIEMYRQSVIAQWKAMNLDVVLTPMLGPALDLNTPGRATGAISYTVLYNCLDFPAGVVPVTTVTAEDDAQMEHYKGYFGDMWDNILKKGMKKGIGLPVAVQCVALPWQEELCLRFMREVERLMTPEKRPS

[2] = biological target: T1, FAAH; experiment: In vivo FAAH inhibition, brain, after oral administration to mice
[3] = system: carboxylesterases (CEs); experiment: CE activity in rat liver microsomes; format: biochemical; settings: for CEs (10 μM), percent of control: 10 μM in rat liver microsomes; for CEs activity, percent of control: C inhib=10 μM in rat liver microsomes, Table 2
[4] = biological target: T2, MAGL (Rattus norvegicus, UniProt Q8R431); experiment: MAGL activity in rat cerebellum cytosol; format: biochemical; settings: for MAGL activity, percent of control / MAGL (100 μM), percent of control: C inhib=100 μM in rat cerebellum cytosol; for MAGL activity, percent of control: Table 2
T2 sequence (Q8R431 1-303): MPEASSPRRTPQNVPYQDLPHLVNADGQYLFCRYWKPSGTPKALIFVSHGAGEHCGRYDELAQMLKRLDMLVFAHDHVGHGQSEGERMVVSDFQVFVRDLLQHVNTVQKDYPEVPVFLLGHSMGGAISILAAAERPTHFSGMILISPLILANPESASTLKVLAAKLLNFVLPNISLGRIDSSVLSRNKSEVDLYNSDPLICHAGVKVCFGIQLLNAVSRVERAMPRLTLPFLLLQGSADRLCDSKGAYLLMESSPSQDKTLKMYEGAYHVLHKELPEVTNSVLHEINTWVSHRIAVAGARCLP

[5] = biological target: T3, FAAH (Rattus norvegicus, UniProt P97612); experiment: In vitro FAAH activity in rat brain homogenates/membranes; format: biochemical; settings: for FAAH activity, percent of control, 10 nM / FAAH activity, percent of control, 100 nM: rat brain homogenates, 15 min pre-incubation
T3 sequence (P97612 1-579): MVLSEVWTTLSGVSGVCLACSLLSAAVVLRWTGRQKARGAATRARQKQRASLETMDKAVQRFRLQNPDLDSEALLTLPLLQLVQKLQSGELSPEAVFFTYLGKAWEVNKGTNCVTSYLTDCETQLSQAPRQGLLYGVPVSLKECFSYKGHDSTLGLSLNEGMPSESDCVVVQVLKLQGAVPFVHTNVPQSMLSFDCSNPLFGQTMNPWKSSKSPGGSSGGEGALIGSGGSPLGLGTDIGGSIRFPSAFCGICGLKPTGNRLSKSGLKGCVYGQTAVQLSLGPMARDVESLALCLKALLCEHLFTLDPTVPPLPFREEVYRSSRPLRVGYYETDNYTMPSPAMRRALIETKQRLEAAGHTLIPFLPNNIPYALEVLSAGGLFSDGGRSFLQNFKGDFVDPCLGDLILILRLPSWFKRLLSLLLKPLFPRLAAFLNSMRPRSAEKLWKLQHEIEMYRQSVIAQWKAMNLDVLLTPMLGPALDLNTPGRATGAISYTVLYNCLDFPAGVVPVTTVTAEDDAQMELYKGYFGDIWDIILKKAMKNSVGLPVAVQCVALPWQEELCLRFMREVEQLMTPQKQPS

[6] = 0.1 mg kg^−1 p.o. in mice, 8 h after administration, Table 4
[7] = 0.1 mg kg^−1 p.o., mice, post-dose
[8] = 30 mg kg^−1 p.o. in mice, 1 h after administration, Table 2
[9] = 30 mg kg^−1 p.o. in mice, 1 h after administration (footnote f), Table 5
[10] = 0.1 mg kg^−1 p.o. in mice, 8 h after administration, Table 5

SMILES	MAGL activity, percent of control [4]	FAAH activity, percent of control, 10 nM ([5]; Table 2)	FAAH activity, percent of control, 100 nM ([5]; Table 2)	FAAH activity, percent of control, 100 nM ([5]; Table 5)	CEs activity, percent of control [3]	CEs (10 μM), percent of control ([3]; Table 5)	other results
O=C(Nc1cccnc1)N1CCC(Cc2cccc(Oc3ccc(C(F)(F)F)cn3)c2)CC1 [Compound 3, PF3845, reference compound]	87±12% of control	101±31% of control	7±4% of control	–	95±17% of control	–	Liver FAAH activity, percent of control [1, 6]: 7±4% of control; time of maximum inhibitory effect in the liver [1, 7]: 1 h; Liver FAAH activity, percent of control [1, 8]: 2±2% of control; inhibition at 30 mg/kg ([1]; mouse, po, read-out: FAAH inhibition in the liver): > 90%; Brain FAAH activity, percent of control [2, 6]: 5±1% of control; time of maximal inhibitory effect in the brain (t max) [2, 7]: 8 h; Brain FAAH activity, percent of control [2, 8]: 1±0% of control; FAAH inhibition in the brain ([2]; 30 mg kg^−1 p.o., mice, 1 h post-administration): over 90%; CEs (10 μM), percent of control ([3]; Table 4): 95±17% of control; MAGL (100 μM), percent of control ([4]; Table 4): 87±12% of control
CN(C(=O)n1ccnc1)c1ccccc1 [Compound 8 a, N ‐Methyl‐N‐phenyl‐1H‐imidazole‐1‐carboxamide]	–	–	–	–	–	–	inhibition at 10 µM ([5]; read-out: FAAH inhibition): 88%
CC1(C)COCN1C(=O)n1cnc(-c2ccccc2)c1 [Compound 8 f, (4,4‐Dimethyloxazolidin‐3‐yl)(4‐phenyl‐1H‐imidazol‐1‐yl)methanone]	–	–	–	94±10% of control	–	95±6% of control	Liver FAAH activity, percent of control [1, 10]: 53±6% of control; Brain FAAH activity, percent of control [2, 10]: 92±7% of control; MAGL (100 μM), percent of control ([4]; Table 5): 92±3% of control
O=C(N1CCN(Cc2ccccc2)CC1)n1cnc(-c2ccccc2)c1 [Compound 8 g]	–	–	–	1±0% of control	–	52±2% of control	MAGL (100 μM), percent of control ([4]; Table 5): 61±6% of control
CN(C(=O)n1cnc(-c2cccnc2)c1)C1CCCCC1 [Compound 8 k, N ‐Cyclohexyl‐N‐methyl‐4‐(pyridin‐3‐yl)‐1H‐imidazole‐1‐carboxamide]	–	–	–	75±7% of control	–	97±3% of control	Liver FAAH activity, percent of control [1, 10]: 13±4% of control; Brain FAAH activity, percent of control [2, 10]: 75±16% of control; MAGL (100 μM), percent of control ([4]; Table 5): 94±4% of control
CN(C(=O)n1nnc2ccccc21)c1ccc(F)cc1F [Compound 10 b, N ‐(2,4‐Difluorophenyl)‐N‐methyl‐1H‐benzo[d][1,2,3]triazole‐1‐carboxamide]	70±6% of control	35±3% of control	2±1% of control	–	40±1% of control	–	–
COc1cc(OC)cc(N(C)C(=O)n2nnc3ccccc32)c1 [Compound 10 c]	–	–	76±0% of control	–	–	–	–
O=C(NCc1ccccc1)n1nnc2ccccc21 [Compound 10 e]	4±1% of control	13±1% of control	2±1% of control	–	67±4% of control	–	Liver FAAH activity, percent of control [1, 8]: 84±6% of control; Brain FAAH activity, percent of control [2, 8]: 87±7% of control
CN(Cc1ccccc1)C(=O)n1nnc2ccccc21 [Compound 10 f]	2±2% of control	0±0% of control	0±0% of control	–	24±1% of control	–	Liver FAAH activity, percent of control [1, 8]: 6±2% of control; Brain FAAH activity, percent of control [2, 8]: 1±0% of control
O=C(N1CCC(Cc2ccccc2)CC1)n1nnc2ccccc21 [Compound 10 h]	7±5% of control	0±0% of control	0±0% of control	–	24±2% of control	–	Liver FAAH activity, percent of control [1, 8]: 6±1% of control; Brain FAAH activity, percent of control [2, 8]: 8±1% of control
CC1(C)OCCN1C(=O)n1nnc2ccccc21 [Compound 10 o]	84±25% of control	71±2% of control	17±3% of control	–	60±7% of control	–	–
CC1(C)COCN1C(=O)n1nnc2cccnc21 [Compound 11 e]	–	–	–	–	–	–	Liver FAAH activity, percent of control [1, 6]: 14±7% of control; inhibition at 0.1 mg/kg ([1]; mouse, po, read-out: peripheral (liver) FAAH inhibition): > 85%; cerebral (brain) FAAH inhibition ([2]; 0.1 mg kg^−1, mouse, p.o., 8 h post-dose): over 85%; Brain FAAH activity, percent of control [2, 6]: 12±4% of control; CEs (10 μM), percent of control ([3]; Table 4): 61±11% of control; MAGL (100 μM), percent of control ([4]; Table 4): 72±5% of control

More lines, main results first:

MAGL activity, percent of control [4]	FAAH activity, percent of control, 10 nM ([5]; Table 2)	FAAH activity, percent of control, 100 nM ([5]; Table 2)	FAAH activity, percent of control, 100 nM ([5]; Table 5)	SMILES	CEs activity, percent of control [3]	CEs (10 μM), percent of control ([3]; Table 5)	other results
–	–	–	84±7% of control	CN(C(=O)n1cnc(-c2ccccc2)c1)c1ccccc1 [Compound 8 b, N ‐Methyl‐N,4‐diphenyl‐1H‐imidazole‐1‐carboxamide]	–	105±5% of control	Liver FAAH activity, percent of control [1, 9]: 11±5^[f] Percent of control; Brain FAAH activity, percent of control [2, 9]: 14±17^[f] Percent of control
–	–	–	104±18% of control	CN(C(=O)n1cnc(-c2ccccc2)c1)C1CCOCC1 [Compound 8 i]	–	96±7% of control	Liver FAAH activity, percent of control [1, 10]: 12±4% of control; Brain FAAH activity, percent of control [2, 10]: 38±18% of control; MAGL (100 μM), percent of control ([4]; Table 5): 96±1% of control
–	–	–	37±3% of control	CN(C(=O)n1cnc(-c2ccccc2)c1)C1CCCCC1 [Compound 8 j]	–	90±11% of control	Liver FAAH activity, percent of control [1, 10]: 33±2% of control; Brain FAAH activity, percent of control [2, 10]: 86±5% of control; MAGL (100 μM), percent of control ([4]; Table 5): 91±3% of control
73±4% of control	42±12% of control	1±0% of control	–	CN(C(=O)n1nnc2ccccc21)c1ccccc1 [Compound 10 a]	31±2% of control	–	Liver FAAH activity, percent of control [1, 8]: 34±5% of control; Brain FAAH activity, percent of control [2, 8]: 34±9% of control; IC50 ([3]; read-out: CE IC50, rat liver microsomes): > 1 µM; IC50 [4]: > 100 µM; IC50 [5]: 0.007 µM
–	–	100±5% of control	–	O=C(Nc1ccc(F)cc1F)n1nnc2ccccc21 [Compound 10 d, N ‐(2,4‐Difluorophenyl)‐1H‐benzo[d][1,2,3]triazole‐1‐carboxamide]	–	–	–
58±6% of control	62±6% of control	15±1% of control	–	O=C(N1CCCCCCC1)n1nnc2ccccc21 [Compound 10 m]	30±2% of control	–	–
35±5% of control	–	71±7% of control	–	C[C@@H]1CCC[C@H](C)N1C(=O)n1nnc2ccccc21 [Compound 10 n]	28±1% of control	–	–

Reference: PMC6582431 (Chemmedchem, 2018)
